Source: paper PMC7728754, “MRI-based molecular imaging of epicardium-derived stromal cells (EpiSC) by peptide-mediated active targeting” (Scientific Reports, 2020)
“Also recorded” adds a separate entry of the source.

Key:
cultured EpiSCs [1] = assay: Flow cytometry binding of FAM-labelled EPs to cultured EpiSCs; assay type: cell-based, rat; conditions: 5 µg/ml FAM-labelled peptide, up to 120 min, 37 °C, n = 5
Method: EpiSCs were detached from the cell culture flask with PBS-EDTA (5 mM) and resuspended in DMEM at a concentration of 0.5 × 10^6 cells/ml. Cell suspensions were incubated with 5 µg/ml of EP1, EP2, EP3, EP7 and EP9 for up to 120 min at 37 °C. After 10, 20, 40, 80 and 120 min, samples were transferred into tubes containing ice-cold MACS buffer (PBS, 2% FCS, 1 mM EDTA) to stop the reaction. Cells were centrifuged for 5 min at 500 × g and 4 °C, washed twice and finally suspended in MACS buffer with DAPI (4′,6-Diamidino-2-phenylindole dihydrochloride; 1 µg/ml) to label dead cells. Flow cytometric analysis was performed on a BD FACS Canto II (BD Biosciences, Heidelberg, Germany).

[2] = tested on: primary human CD14+ monocytes; assay: Flow cytometry binding of EP9 to primary human monocytes; assay type: cell-based; conditions: 1.9 µg EP9 in 600 µl cell suspension, up to 45 min, 37 °C, n = 4 (Fig. S3)
Method: Blood was withdrawn from healthy human volunteers by venous puncture and 10 ml of whole blood were mixed with 10 ml of PBS and gently laid on top of Histopaque-1077 (Sigma-Aldrich Chemie GmbH). After density centrifugation, the PBMC layer was diluted 1:1 with PBS and a centrifugation step was performed. The cell pellet was subjected to erythrocyte lysis using hypotonic buffer for 10 min at 4 °C. After centrifugation, the cells were resuspended in 8.5 ml DMEM. The cell suspension (600 µl) was incubated with 1.9 µg of EP9 for 45 min, at 37 °C. After 5, 15 and 45 min, samples were transferred into ice cold MACS buffer to stop the reaction and centrifuged for 5 min at 500 × g. Cells were washed with MACS buffer, resuspended in CD14-PE/Cy7 (PE/Cy7 anti-human CD14, Clone 63D3, BioLegend, San Diego, USA) antibody solution and incubated for 30 min at 4 °C. Flow cytometric analysis was performed after two washing steps and suspension in MACS buffer with DAPI (1 µg/ml) using a BD FACS Canto II.

EpiSCs = assay: Surface plasmon resonance, EpiSCs over immobilized EP9; assay type: binding, rat; conditions: SPR, 25 °C, PBS
Method: (§1) To analyse the interaction kinetics between peptide EP9 and EpiSCs, we used a BIAcore X100 system equipped with a CM5 sensor chips (GE Healthcare GmbH, Solingen, Germany). EP9 peptide was immobilized to the surface of the CM5 chip (600 µg/ml; 30 µl/min) using a thiol coupling chemistry (GE Healthcare GmbH). Presence of a free SH group at the C-terminal of EP9 peptide enabled us to efficiently immobilize it through a thiol coupling procedure. Afterward, EpiSCs and THP-1 monocytes (ATCC: TIB-202; 10,000 cells/µl) were injected over the sensor chip to monitor the association between immobilized EP9 peptide and the cells. After injection of the cells, dissociation phase was monitored by introduction of buffer for a period of 300 s. In another experimental strategy, increasing numbers of EpiSCs (200, 400 and 800 × 10^3) were flushed over the immobilized peptide EP9 with a flow rate of 30 µl/min and dissociation was measured for an identical period of time. Finally, to block the EP9 binding sites, EpiSCs were pre-incubated for 30 min with 5 µg of EP9 before injection into the BIAcore system and subjected to the same procedure as described above. All SPR experiments were carried out at 25 °C in PBS.

EpiSC and THP-1 cells = assay: Cytotoxicity by DAPI flow cytometry; assay type: cell-based; conditions: 200 µl of cells + 5 µl EP9PFCs or 1.9 µg EP9, up to 120 min, 37 °C, n = 3
Method: EpiSC and THP-1 cells were incubated with EP9 peptide or ^EP9PFCs (200 µl of cells + 5 µl ^EP9PFCs or 1.9 µg EP9) over a period of 120 min at 37 °C. Samples were withdrawn after 0 min, 15 min, 30 min, 60 min and 120 min and analyzed by flow cytometry. Cells were stained with DAPI (1 µg/ml) to label dead cells.

cultured EpiSCs [3] = assay: Impact of storage on EP9/EP9PFC targeting efficacy; assay type: cell-based, rat; conditions: stored in phosphate buffer at 4 °C for 24 h, then 30 min at 37 °C on cultured EpiSCs, flow cytometry, n = 3
Method: EP9 and ^EP9PFCs were stored in phosphate buffer at 4 °C for 6 h and 24 h. Subsequently EP9 and ^EP9PFCs were incubated on cultured EpiSCs for 30 min at 37 °C. Cells were washed twice with MACS buffer and then analyzed by flow cytometry.

THP-1 monocytes = assay: Surface plasmon resonance, THP-1 monocytes over immobilized EP9; assay type: binding, human; conditions: SPR, CM5 chip, 30 µl/min, 25 °C, PBS, negative control cells
Method: as §1

ATKTIAP [EP2]
Binding to cultured EpiSCs (cultured EpiSCs [1]): strong binding

KLMLPRP [EP9]
Binding to primary monocytes [2]: not detectable
Association of EpiSCs to immobilized peptide (EpiSCs; CM5 chip, thiol coupling, 30 µl/min): rapidly associated
Dissociation rate (EpiSCs; EpiSCs over thiol-immobilized EP9, 30 µl/min): 0.005 s⁻¹
Acute cytotoxic effects (EpiSC and THP-1 cells): did not find evidence for acute cytotoxic effects
Cellular labelling of EpiSCs after storage (cultured EpiSCs [3]): severely reduced
Binding to cultured EpiSCs (cultured EpiSCs [1]): strong binding; also recorded: best binding properties
Association of THP-1 monocytes to immobilized peptide (THP-1 monocytes): only minor association

QSHALMA [EP7]
Binding to cultured EpiSCs (cultured EpiSCs [1]): strong binding

SEPIVPL [EP1]
Binding to cultured EpiSCs (cultured EpiSCs [1]): strong binding

THVYRDE [EP3]
Binding to cultured EpiSCs (cultured EpiSCs [1]): strong binding
